Tests used:
PC-82 Human Tumor = experiment: PC-82 human tumor growth in nude mice; type: in vivo, male nude mice; conditions: MDL 103432 and MDL 105831 50 mg/kg B.I.D., MDL 15910 15 mg/kg B.I.D., per os; for Tumor Growth in PC-82 Human Tumor in Male Nude Mice, Day 7 / Tumor Growth in PC-82 Human Tumor in Male Nude Mice, Day 15 / Tumor Growth in PC-82 Human Tumor in Male Nude Mice, Day 21 / Tumor Growth in PC-82 Human Tumor in Male Nude Mice, Day 28 / Tumor Growth in PC-82 Human Tumor in Male Nude Mice, Day 35 / Tumor Growth in PC-82 Human Tumor in Male Nude Mice, Day -4: corrected group mean; for Tumor Growth in PC-82 Human Tumor in Male Nude Mice, Day -4: Day -4 (before treatment); for Δv/Δt (day 35-day 7): average tumor growth over 28 days from corrected group means
From the text: As described in van Steenbrugge, G.J. et al., J. Urol 131: 812-817 (1984) van Steenbrugge G.J. et al., The Prostate 11: 195-210 (1987) and Redding, T.W. et al., Cancer Research 52, 2538-2544 (1992), male nude mice (Hsd:athymic, Nude-nu) were obtained from Harlan Sprague Dawley. Mice were housed in sterilized micro-isolators and fed autoclaved ABLE® rodent chow (Purina Mills Inc., St. Louis, MO) and deionized water, adlibitum. Tumor-donating mice were first anesthetized using sodium pentobarbital and then sacrificed by cervical dislocation. The tumor was subsequently excised and placed in a petri dish containing ice-cold Hanks balanced salt solution. Tumors were cut into 2-3 mm cubes for implantation. Recipient animals were first anesthetized with 50 mg/kg pentobarbital, then implanted, by use of a trocar, with tumor fragments (one per mouse) in the dorsal area. Animals were separated into two control groups, one with vehicle alone and the other castrated, and the treatment groups, where n is the number of animals in each group.
Animals were selected for treatment groups based on tumor size. Each test compound was prepared as a solution or suspension in a lecithin vehicle (L-α-phosphatidylcholine type XV-E) containing methylparaben and propylparaben at a dose volume of 10 cc/kg. Animals were treated for 42 days by oral gavage (per os) seven days per week. Twenty-four hours after the last treatment the animals were euthenized by CO2 and tumors were removed and weighed. During the study period, mice were weighed and palpated weekly for tumors. In Table 5, average tumor growth is determined from the corrected group means over a 28 day period after treatment was started. […] The following animal data was deleted before computation of the corrected mean data in Table 5, Fig. 1: animals 4 and 44; Fig. 2: animals 10, 38 and 42; Fig. 3: Animal 39; Fig. 4: Animals 8, 9 and 49; Fig. 5: Animals 37 and 40 and 41.
Table 5 illustrates the average tumor growth in animals treated with 4-aza-17β-(cyclopropyloxy)-5α-androstan-3-one (MDL 103432; 50 mg/kg B.I.D.) 4-aza-17β-(cyclopropylamino)-androst-5(6)-en-3-one (MDL 105831; 50 mg/kg B.I.D.) and flutamide (MDL 15,910; 15 mg/kg B.I.D.), a known androgen receptor antagonist. The average growth rate of each tested compound relative to the vehicle and castrated controls is consistent with the in vivo inhibition of androgens.

[1] = biological target: T1, cynomolgus monkey C17,20 lyase (Macaca fascicularis, UniProt Q2XVA1); experiment: In vitro C17,20 lyase assay, testicular microsomes; type: biochemical; conditions: mean of duplicates
T1 construct: microsomal preparations of the enzyme from testicular tissue; from tissue; host or cells: cynomolgus monkey testes, microsomes
T1 sequence (Q2XVA1 1-508): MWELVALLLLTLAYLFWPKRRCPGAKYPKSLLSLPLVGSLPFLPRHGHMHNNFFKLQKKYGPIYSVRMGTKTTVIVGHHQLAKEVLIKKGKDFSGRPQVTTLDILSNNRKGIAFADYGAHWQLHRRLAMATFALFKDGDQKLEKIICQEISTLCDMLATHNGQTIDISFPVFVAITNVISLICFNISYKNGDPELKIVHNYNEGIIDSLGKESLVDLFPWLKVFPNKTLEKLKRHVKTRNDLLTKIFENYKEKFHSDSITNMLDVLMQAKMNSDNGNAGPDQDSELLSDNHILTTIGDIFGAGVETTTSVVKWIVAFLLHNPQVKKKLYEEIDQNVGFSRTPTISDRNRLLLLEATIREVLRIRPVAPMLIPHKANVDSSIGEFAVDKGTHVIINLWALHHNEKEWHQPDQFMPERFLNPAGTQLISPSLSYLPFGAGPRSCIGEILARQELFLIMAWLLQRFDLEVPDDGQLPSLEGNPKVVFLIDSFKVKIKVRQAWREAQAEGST
Protocol: In vitro C17,20 lyase assays: Compounds were tested for inhibition of cynomolgus monkey C17,20 lyase in vitro using microsomal preparations of the enzyme from testicular tissue. Testes were removed from anesthetized animals and flash frozen in liquid nitrogen. Microsomes were isolated as described in Schatzman et al., Anal. Biochem. 175, 219-226 (1988). The compound to be tested was dissolved in dimethyl sulfoxide and diluted in 0.05 M potassium phosphate buffer, pH 7.4, to give the desired concentrations of test compound, in an amount which contributed 0.1% v/v DMSO to the total assay volume. Assays contained 0.05 M potassium phosphate buffer, pH 7.4, an NADPH regenerating system (1 mM NADPH, 5 mM glucose-6-phosphate, 1 IU/mL glucose-6-phosphate dehydrogenase), test compound, substrate and microsomal protein in a total volume of 0.2 mL. Control assays contained all components, including dimethyl sulfoxide, but not test ccmpound. All assays were performed in duplicate. The test compound was incubated with 20 to 62 µg/mL microsomal protein, buffer, and the NADPH regenerating system described above at 34°C for 0 or 40 minutes. Aliquots of 180 µL were then removed and assayed for enzyme activity by addition to 7-[^3H]-17α-hydroxypregnenolone (11.2 mCi/mmole; 0.2 µCi per assay) plus unlabeled 17α-hydroxypregnenolone dissolved in DMSO, contributing 2.5% v/v to the final assay mix, and phosphate buffer to give a total substrate concentration of 0.05 µM (=Km) per assay and subsequent incubation at 34°C for 6 minutes. Each assay was terminated by addition of 5 mL of chloroform:methanol (2:1). Carrier steroids representing substrates and produces (17α-hydroxypregnenolone, dehydroepiandrosterone, and androst-5-ene-3β,17β-diol) and 0.8 mL of distilled, deionized water were also added at this time. The steroids were extracted by the method of Moore and Wilson (Methods in Enzymol., eds. O. Malley, B.W. and Hardman, J.G. 36, 1975, pp. 466-474). The organic phase containing the steroids was evaporated using nitrogen gas, the residues dissolved in 18% tetrahydrofuran (v/v) in hexane, and the steroids were separated by HPLC on a Si60 (5 µm) column (250 x 4 mm) using a gradient of 18-22% tetrahydrofuran (v/v) in hexane. Radioactivity in the steroid peaks was measured using a Radiomatic® Model ES or Model A515 Flo-One® detector.
The enzyme activity for each assay was calculated from the percent conversion of substrate to products, and the results were expressed as percent inhibition of control. The following results were obtained, wherein the values indicated are the mean of duplicate determinations: Table 1: […]

SMILES	Tumor Growth in PC-82 Human Tumor in Male Nude Mice, Day 7 (PC-82 Human Tumor) [mm^3]	Tumor Growth in PC-82 Human Tumor in Male Nude Mice, Day 15 (PC-82 Human Tumor)	Tumor Growth in PC-82 Human Tumor in Male Nude Mice, Day 21 (PC-82 Human Tumor) [mm^3]	Tumor Growth in PC-82 Human Tumor in Male Nude Mice, Day 28 (PC-82 Human Tumor) [mm^3]	Tumor Growth in PC-82 Human Tumor in Male Nude Mice, Day 35 (PC-82 Human Tumor) [mm^3]	Tumor Growth in PC-82 Human Tumor in Male Nude Mice, Day -4 (PC-82 Human Tumor) [mm^3]	Δv/Δt (day 35-day 7) (PC-82 Human Tumor) [mm^3/day]	inhibition at 0.1 µM ([1]; preincubation 0 min) [%]	inhibition at 0.1 µM ([1]; preincubation 40 min) [%]	inhibition at 1 µM ([1]; preincubation 0 min) [%]	inhibition at 1 µM ([1]; preincubation 40 min) [%]	inhibition at 10 µM ([1]; preincubation 0 min) [%]	inhibition at 10 µM ([1]; preincubation 40 min) [%]
CC12CCC3C(CC[C@H]4NC(=O)CCC34C)C1CC[C@@H]2OC1CC1 (stereo partly drawn) [MDL 103,432, 17β-Cyclopropyloxy-4-aza-5α-androstan-3-one]	180.2	220,2 mm^3	288.2	385.9	427.4	122.2	8.83	23.4	20.2	33	54.2	68.3	80.2
C[C@]12CC[C@H]3[C@@H](CC=C4NC(=O)CC[C@@]43C)[C@@H]1CC[C@@H]2NC1CC1 [MDL 105,831, 17β-Cyclopropylamino-4-aza-androst-5-en-3-one]	188.3	254.3 mm^3	304.3	530.7	531.1	124.9	12.24	11.4	24.6	26	53.8	69.6	100
